Biological target: T1, Bcl-2 protein (Recombinant Human Bcl-2 Protein) (Homo sapiens, UniProt P10415)
T1 construct: purchased Novus Biologicals NBP2-34889
Test: AS-MS evaluation of binding of the Example 4 mixture library (1200 compounds/well) to Bcl-2, ASMS ratio (%)
Conditions: AS-MS, Example 4 mixture library; for ASMS ratio (%) n = 1: Bcl-2, replicate n = 1; for ASMS ratio (%) n = 2: Bcl-2, replicate n = 2
Procedure, shortened: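 ASMS ratio (%) derived from reverse-phase LC/MS of three samples: Bcl-2 (20 μM) incubation after SEC, protein-free standard without SEC, and protein-free blank after SEC. Compounds were pooled at 1200/well, 20 nM each, incubated 1 h, 23 °C, dark, in Tris-HCl pH 7.4 buffer with Tween-20 and DTT.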

T1 sequence (P10415 whole entry): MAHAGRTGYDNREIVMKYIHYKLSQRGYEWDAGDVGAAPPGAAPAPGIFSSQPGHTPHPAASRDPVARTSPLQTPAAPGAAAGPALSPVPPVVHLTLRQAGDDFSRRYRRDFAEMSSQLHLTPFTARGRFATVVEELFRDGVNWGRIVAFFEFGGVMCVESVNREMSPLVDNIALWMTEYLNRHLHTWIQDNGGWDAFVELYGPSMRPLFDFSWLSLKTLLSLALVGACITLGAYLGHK

| ASMS ratio (%) n = 1 [%] | ASMS ratio (%) n = 2 [%] | Structure (SMILES) |
| --- | --- | --- |
| 0.0 | 0.0 | CCOc1cncc(-c2ccc(CN3CCN(c4ccc(C(=O)NS(=O)(=O)CCC(F)(F)F)cc4)CC3)c3ccccc23)c1 [Compound B2N066-01, 4-[4-[[4-(5-Ethoxypyridin-3-yl)naphthalen-1-yl]methyl]piperazin-1-yl]-N-(3,3,3-trifluoropropylsulfonyl)benzamide] |
| −1.8 | −1.5 | CCOc1cccc(C#Cc2ccccc2CN2CCN(c3ccc(C(=O)NS(=O)(=O)CCC(F)(F)F)cc3)CC2)c1 [Compound B2N069-01, 4-[4-[[2-[2-(3-Ethoxyphenyl)ethynyl]phenyl]methyl]piperazin-1-yl]-N-(3,3,3-trifluoropropylsulfonyl)benzamide] |
| 0.0 | 0.0 | CCOc1cccc(-c2ccccc2CN2CCN(c3ccc(C(=O)NS(=O)(=O)CCC(F)(F)F)nn3)CC2)c1 [Compound B2N071-01, 6-[4-[[2-(3-Ethoxyphenyl)phenyl]methyl]piperazin-1-yl]-N-(3,3,3-trifluoropropylsulfonyl)pyridazine-3-carboxamide] |
| 0.0 | 0.0 | CCOc1cncc(-c2ccc(CN3CCN(c4ccc(C(=O)NS(=O)(=O)CCC(F)(F)F)nn4)CC3)cc2C)c1 [Compound B2N074-01, 6-[4-[[4-(5-Ethoxypyridin-3-yl)-3-methylphenyl]methyl]piperazin-1-yl]-N-(3,3,3-trifluoropropylsulfonyl)pyridazine-3-carboxamide] |
| 0.0 | 0.0 | CCOc1cncc(-c2ccc(CN3CCN(c4ccc(C(=O)NS(=O)(=O)CCC(F)(F)F)nn4)CC3)c(CC)c2)c1 [Compound B2N076-01, 6-[4-[[4-(5-Ethoxypyridin-3-yl)-2-ethylphenyl]methyl]piperazin-1-yl]-N-(3,3,3-trifluoropropylsulfonyl)pyridazine-3-carboxamide] |
| 0.0 | 0.0 | CCOc1cncc(-c2ccc(CN3CCN(c4ccc(C(=O)NS(=O)(=O)CCC(F)(F)F)nn4)CC3)cc2F)c1 [Compound B2N078-01, 6-[4-[[4-(5-Ethoxypyridin-3-yl)-3-fluorophenyl]methyl]piperazin-1-yl]-N-(3,3,3-trifluoropropylsulfonyl)pyridazine-3-carboxamide] |
| 0.0 | 0.0 | CCOc1cccc(-c2cc(CN3CCN(c4ccc(C(=O)NS(=O)(=O)CCC(F)(F)F)nn4)CC3)cc(OCC)c2)c1 [Compound B2N081-01] |
| 2.5 | 2.8 | CCOc1cncc(-c2cc(CN3CCN(c4ccc(C(=O)NS(=O)(=O)CCC(F)(F)F)nn4)CC3)cc(OCC)c2)c1 [Compound B2N082-01, 6-[4-[[3-Ethoxy-5-(5-ethoxypyridin-3-yl)phenyl]methyl]piperazin-1-yl]-N-(3,3,3-trifluoropropylsulfonyl)pyridazine-3-carboxamide] |
| 0.0 | 0.0 | CCOc1cccc(-c2cc(CN3CCN(c4ccc(C(=O)NS(=O)(=O)CCC(F)(F)F)nn4)CC3)cc(OC(C)C)c2)c1 [Compound B2N083-01, 6-[4-[[3-(3-Ethoxyphenyl)-5-propan-2-yloxyphenyl]methyl]piperazin-1-yl]-N-(3,3,3-trifluoropropylsulfonyl)pyridazine-3-carboxamide] |
| 0.0 | 0.0 | CCOc1cncc(-c2cc(CN3CCN(c4ccc(C(=O)NS(=O)(=O)CCC(F)(F)F)nn4)CC3)cc(OC(C)C)c2)c1 [Compound B2N084-01] |
| 0.0 | 0.0 | CCOc1cncc(-c2cc(OC)c(CN3CCN(c4ccc(C(=O)NS(=O)(=O)CCC(F)(F)F)nn4)CC3)c(OC)c2)c1 [Compound B2N086-01, 6-[4-[[4-(5-Ethoxypyridin-3-yl)-2,6-dimethoxyphenyl]methyl]piperazin-1-yl]-N-(3,3,3-trifluoropropylsulfonyl)pyridazine-3-carboxamide] |
| 0.0 | 0.0 | CCOc1cccc(-c2cc(CN3CCN(c4ccc(C(=O)NS(=O)(=O)CCC(F)(F)F)nn4)CC3)cc(C(F)(F)F)c2)c1 [Compound B2N087-01, 6-[4-[[3-(3-Ethoxyphenyl)-5-(trifluoromethyl)phenyl]methyl]piperazin-1-yl]-N-(3,3,3-trifluoropropylsulfonyl)pyridazine-3-carboxamide] |
| 0.0 | 0.0 | CCOc1cncc(-c2cc(CN3CCN(c4ccc(C(=O)NS(=O)(=O)CCC(F)(F)F)nn4)CC3)cc(C(F)(F)F)c2)c1 [Compound B2N088-01, 6-[4-[[3-(5-Ethoxypyridin-3-yl)-5-(trifluoromethyl)phenyl]methyl]piperazin-1-yl]-N-(3,3,3-trifluoropropylsulfonyl)pyridazine-3-carboxamide] |
|  | 0.0 | CCOc1cccc(-c2cc(CN3CCN(c4ccc(C(=O)NS(=O)(=O)CCC(F)(F)F)nn4)CC3)cc(OC(F)(F)F)c2)c1 [Compound B2N089-01, 6-[4-[[3-(3-Ethoxyphenyl)-5-(trifluoromethoxy)phenyl]methyl]piperazin-1-yl]-N-(3,3,3-trifluoropropylsulfonyl)pyridazine-3-carboxamide] |

The remaining lines, values behind:

| Structure (SMILES) | ASMS ratio (%) n = 1 [%] | ASMS ratio (%) n = 2 [%] |
| --- | --- | --- |
| CCOc1cccc(-c2csc(CN3CCN(c4ccc(C(=O)NS(=O)(=O)CCC(F)(F)F)cc4)CC3)c2)c1 [Compound B2N067-01, 4-[4-[[4-(3-Ethoxyphenyl)thiophen-2-yl]methyl]piperazin-1-yl]-N-(3,3,3-trifluoropropylsulfonyl)benzamide] | 0.0 | 0.0 |
| CCOc1cncc(-c2csc(CN3CCN(c4ccc(C(=O)NS(=O)(=O)CCC(F)(F)F)cc4)CC3)c2)c1 [Compound B2N068-01, 4-[4-[[4-(5-Ethoxypyridin-3-yl)thiophen-2-yl]methyl]piperazin-1-yl]-N-(3,3,3-trifluoropropylsulfonyl)benzamide] | 0.0 | 0.5 |
| CCOc1cncc(C#Cc2ccccc2CN2CCN(c3ccc(C(=O)NS(=O)(=O)CCC(F)(F)F)cc3)CC2)c1 [Compound B2N070-01, 4-[4-[[2-[2-(5-Ethoxypyridin-3-yl)ethynyl]phenyl]methyl]piperazin-1-yl]-N-(3,3,3-trifluoropropylsulfonyl)benzamide] | 0.0 | 0.0 |
| CCOc1cncc(-c2ccccc2CN2CCN(c3ccc(C(=O)NS(=O)(=O)CCC(F)(F)F)nn3)CC2)c1 [Compound B2N072-01, 6-[4-[[2-(5-Ethoxypyridin-3-yl)phenyl]methyl]piperazin-1-yl]-N-(3,3,3-trifluoropropylsulfonyl)pyridazine-3-carboxamide] | 0.0 | 0.1 |
| CCOc1cccc(-c2ccc(CN3CCN(c4ccc(C(=O)NS(=O)(=O)CCC(F)(F)F)nn4)CC3)cc2C)c1 [Compound B2N073-01, 6-[4-[[4-(3-Ethoxyphenyl)-3-methylphenyl]methyl]piperazin-1-yl]-N-(3,3,3-trifluoropropylsulfonyl)pyridazine-3-carboxamide] | 0.0 | 0.0 |
| CCOc1cccc(-c2ccc(CN3CCN(c4ccc(C(=O)NS(=O)(=O)CCC(F)(F)F)nn4)CC3)cc2F)c1 [Compound B2N077-01, 6-[4-[[4-(3-Ethoxyphenyl)-3-fluorophenyl]methyl]piperazin-1-yl]-N-(3,3,3-trifluoropropylsulfonyl)pyridazine-3-carboxamide] | 0.0 | 0.0 |
| CCOc1cccc(-c2ccc(CN3CCN(c4ccc(C(=O)NS(=O)(=O)CCC(F)(F)F)nn4)CC3)c(OC)c2)c1 [Compound B2N079-01, 6-[4-[[4-(3-Ethoxyphenyl)-2-methoxyphenyl]methyl]piperazin-1-yl]-N-(3,3,3-trifluoropropylsulfonyl)pyridazine-3-carboxamide] | 0.0 | 0.0 |
| CCOc1cncc(-c2ccc(CN3CCN(c4ccc(C(=O)NS(=O)(=O)CCC(F)(F)F)nn4)CC3)c(OC)c2)c1 [Compound B2N080-01, 6-[4-[[4-(5-Ethoxypyridin-3-yl)-2-methoxyphenyl]methyl]piperazin-1-yl]-N-(3,3,3-trifluoropropylsulfonyl)pyridazine-3-carboxamide] | 0.0 | 0.0 |
| CCOc1cccc(-c2cc(OC)c(CN3CCN(c4ccc(C(=O)NS(=O)(=O)CCC(F)(F)F)nn4)CC3)c(OC)c2)c1 [Compound B2N085-01, 6-[4-[[4-(3-Ethoxyphenyl)-2,6-dimethoxyphenyl]methyl]piperazin-1-yl]-N-(3,3,3-trifluoropropylsulfonyl)pyridazine-3-carboxamide] | 0.0 | 0.0 |
| CCOc1cncc(-c2cc(CN3CCN(c4ccc(C(=O)NS(=O)(=O)CCC(F)(F)F)nn4)CC3)cc(OC(F)(F)F)c2)c1 [Compound B2N090-01, 6-[4-[[3-(5-Ethoxypyridin-3-yl)-5-(trifluoromethoxy)phenyl]methyl]piperazin-1-yl]-N-(3,3,3-trifluoropropylsulfonyl)pyridazine-3-carboxamide] | 0.0 | 0.0 |
| CCOc1cccc(-c2ccc(CN3CCN(c4ccc(C(=O)NS(=O)(=O)CCC(F)(F)F)nn4)CC3)c3ccccc23)c1 [Compound B2N091-01, 6-[4-[[4-(3-Ethoxyphenyl)naphthalen-1-yl]methyl]piperazin-1-yl]-N-(3,3,3-trifluoropropylsulfonyl)pyridazine-3-carboxamide] | 0.0 | 0.0 |

Source: patent publication US20250154686A1, “COMPOUND LIBRARY” (CHUGAI SEIYAKU KABUSHIKI KAISHA, priority 2021, published 2025)
